Source: US9676793B2, “Co-crystals of 5-amino-2-oxothiazolo[4,5-d]pyrimidin-3(2H)-yl-5-hydroxymethyl tetrahydrofuran-3-yl acetate and methods for preparing and using the same” (Hoffmann-La Roche Inc., priority 2014, dated 2017)
Where two headings read alike, the source gives them in different places.

Experiments:
human PBMCs = experiment: Cytokine profiling of conditioned media from stimulated PBMCs; type: cell-based; settings: no release with DMSO
Description: TLR-7 agonists stimulate the production cytokines and chemokines from human PBMC's. Conditioned medium was obtained by contacting cultured PBMC's with DMSO (control) or 100 μM R06871765 (drug) was contacted with HBV infected HepaRGd cells.
The anti-viral effect of conditioned medium obtained cultured PBMC's treated with R06871765 most likely is due to the release of cytokines and chemokines from PBMC's.

[1] = Cell viability by CellTiter-Glo, direct treatment; type: cell-based; settings: human; for cytotoxicity at 7 days, 0.82 μM / cytotoxicity at 7 days, 2.47 μM / cytotoxicity at 7 days, 7.41 μM / cytotoxicity at 7 days, 22.22 μM / cytotoxicity at 7 days, 66.67 μM / cytotoxicity at 7 days, 200 μM: read-out: Cell viability (% inhibition)
[2] = test system: HBV infected HepaRGd cells; experiment: Cell viability by CellTiter-Glo, direct treatment; type: cell-based; settings: for CC50: read-out: EC/CC50 (μM), Cell viability
HBV = experiment: microbe, parasite or virus in culture
Description: Direct inhibition of viral replication was evaluated by monitoring the levels of secreted HBV DNA and the levels of HBV surface antigen (HBsAg) in cultures containing HBV infected HepaRG cells.
After three days incubation, the combined medium was replaced with differentiation medium and the cells were maintained in the differentiation medium for an additional 2 to 4 weeks. The differentiation medium was renewed every 2 to 3 days throughout the incubation period. Differentiated HepaRG cells (HepaRGd) display hepatocyte-like cell islands surrounded by monolayer of biliary-like cells. Prior to HBV infection and compound treatment, HepaRGd cells were seeded into collagen I coated 96-well plates (Gibco, Cat# A11428-03) at 50,000 to 60,000 cells per well. Cells were allowed to recover their differentiated phenotype in 96-well plates for at least 1 week after plating prior to HBV infection.
HBV inoculum was collected from HepG2.2.15 cultured cells, a cell line that supports HBV (genotype D, strain ayw) replication and virion secretion as disclosed in Sells M A., et al., PNAS, 84(4): 1005-1009. HepG2.2.15 cells were maintained in DMEM+GlutaMAX-I (Invitrogen) containing 1× Pen/Strep (Invitrogen), 10% FBS, and 0.25 mg/ml G-418 (Invitrogen) using hyperflasks (Corning) pre-coated with collagen I (BD Biosciences). Upon reaching confluency, HepG2.2.15 culture media was replaced with DMEM+GlutaMAX-I containing 1× Pen-Strep, 2.5% FBS, and 1% DMSO for 3 days and then replaced with DMEM+GlutaMAX-I containing 1× Pen-Strep and 1% DMSO. The 1% DMSO containing media was collected every 3 to 4 days over a two week period and HBV infectious virions and subviral particles were pelleted by ultracentrifugation through a 20% sucrose cushion in a Ti 45 Beckman rotor at 45,000 rpm for 3 hours at 4° C. The pellets were resuspended in WEM at a concentration of 10^8-10^9 genome equivalents (GE) per ml, determined by real time PCR as described below using a genotype D HBV containing plasmid DNA as an internal standard. To evaluate the infectivity of the inoculum, HepaRGd cells in 96-well plates were infected in differentiation medium containing 50 to 200 GE/cell and 4% PEG 8000 (PolyEthylene Glycol 8000, Sigma, Cat# P5413-500G) for 16 hr at 37° C. At the end of the infection, HBV inoculum was removed and cells were washed 3 times with differentiation medium. Differentiation medium was replenished every 2 to 3 days and HBV replication was monitored by measuring secreted HBV DNA, hepatitis B surface (HBsAg) and/or e (HBeAg) antigens.
HBsAg was detected from 50 μL of HBV infected HepaRG supernatants using the HBsAg chemiluminescence immunoassay (CLIA) kit following instructions as recommended by the manufacturer (Autobio Diagnostics Co., Zhengzhou, China). HBV DNA was extracted from 50 μL of HBV infected HepaRGd supernatants using the MagNA Pure 96 DNA and Viral NA Small Volume Kit (Roche, Cat#05 467 497 001). […] All PCR reactions were performed using the ViiA7 Real Time PCR system (Life Technologies).
Both direct and indirect inhibitory activity of HBV replication was measured. […] Aliquots of these reagents were added to independent wells of a 96-well culture plate containing HBV infected HepaRGd cells on day 4 post infection. The final concentration of DMSO in each well was 2%. The HepaRGd cells used in the inhibition study were maintained in differentiation media containing 2% DMSO.

Nc1nc2c(sc(=O)n2[C@@H]2O[C@H](CO)C[C@H]2O)c(=O)[nH]1 [R06871765]
release of IFN-α, IL-6, TNF-α and IP-10 from PBMCs (human PBMCs): induced release | cytotoxicity at 7 days, 0.82 μM ([1]; EXP ID 10/15/2012 AL): -2.58% | cytotoxicity at 7 days, 0.82 μM ([1]; EXP ID 10/15/2012 VL): 3.23% | cytotoxicity at 7 days, 2.47 μM ([1]; EXP ID 10/15/2012 AL): -2.57% | cytotoxicity at 7 days, 2.47 μM ([1]; EXP ID 10/15/2012 VL): 0.54% | cytotoxicity at 7 days, 7.41 μM ([1]; EXP ID 10/15/2012 AL): -2.85% | cytotoxicity at 7 days, 7.41 μM ([1]; EXP ID 10/15/2012 VL): -1.5% | cytotoxicity at 7 days, 22.22 μM ([1]; EXP ID 10/15/2012 AL): -2.43% | cytotoxicity at 7 days, 22.22 μM ([1]; EXP ID 10/15/2012 VL): -1.37% | cytotoxicity at 7 days, 66.67 μM ([1]; EXP ID 10/15/2012 AL): 3.7% | cytotoxicity at 7 days, 66.67 μM ([1]; EXP ID 10/15/2012 VL): 7.34% | cytotoxicity at 7 days, 200 μM ([1]; EXP ID 10/15/2012 AL): 12.3% | cytotoxicity at 7 days, 200 μM ([1]; EXP ID 10/15/2012 VL): 22% | CC50 at 7 days ([1]; HBV infected HepaRGd cells): > 200 µM | CC50 ([2]; EXP ID 10/15/2012 AL): > 200 µM | CC50 ([2]; EXP ID 10/15/2012 VL): > 200 µM | maximum reduction in viability ([2]; highest concentration (200 μM)): about 17% | EC50 (HBV; Hepatitis B virus, 168 h, read-out: EC50 (HBV DNA or HBsAg)): > 200 µM | CC50 (HBV; Hepatitis B virus, read-out: EC/CC50 (μM), HBV DNA): > 200 µM | CC50 (HBV; Hepatitis B virus, read-out: EC/CC50 (μM), HBsAg): > 200 µM | inhibition at 0.82 µM (HBV; Hepatitis B virus, read-out: HBV DNA (% inhibition), 0.82 μM, EXP ID 10/15/2012 AL): -1.24% | inhibition at 0.82 µM (HBV; Hepatitis B virus, read-out: HBV DNA (% inhibition), 0.82 μM, EXP ID 11/1/2012): 12.2% | inhibition at 2.47 µM (HBV; Hepatitis B virus, read-out: HBV DNA (% inhibition), 2.47 μM, EXP ID 10/15/2012 AL): -16% | inhibition at 2.47 µM (HBV; Hepatitis B virus, read-out: HBV DNA (% inhibition), 2.47 μM, EXP ID 11/1/2012): -0.77% | inhibition at 7.41 µM (HBV; Hepatitis B virus, read-out: HBV DNA (% inhibition), 7.41 μM, EXP ID 10/15/2012 AL): -17.4% | inhibition at 7.41 µM (HBV; Hepatitis B virus, read-out: HBV DNA (% inhibition), 7.41 μM, EXP ID 11/1/2012): -23.5% | inhibition at 22.22 µM (HBV; Hepatitis B virus, read-out: HBV DNA (% inhibition), 22.22 μM, EXP ID 10/15/2012 AL): 4.96% | inhibition at 22.22 µM (HBV; Hepatitis B virus, read-out: HBV DNA (% inhibition), 22.22 μM, EXP ID 11/1/2012): 5.69% | inhibition at 66.67 µM (HBV; Hepatitis B virus, read-out: HBV DNA (% inhibition), 66.67 μM, EXP ID 10/15/2012 AL): -0.65% | inhibition at 66.67 µM (HBV; Hepatitis B virus, read-out: HBV DNA (% inhibition), 66.67 μM, EXP ID 11/1/2012): 21.1% | inhibition at 200 µM (HBV; Hepatitis B virus, read-out: HBV DNA (% inhibition), 200 μM, EXP ID 10/15/2012 AL): 12.2% | inhibition at 200 µM (HBV; Hepatitis B virus, read-out: HBV DNA (% inhibition), 200 μM, EXP ID 11/1/2012): 3.11% | inhibition at 0.82 µM (HBV; Hepatitis B virus, read-out: HBsAg (% inhibition), 0.82 μM, EXP ID 10/15/2012 AL): 10.5% | inhibition at 0.82 µM (HBV; Hepatitis B virus, read-out: HBsAg (% inhibition), 0.82 μM, EXP ID 10/15/2012 VL): 14.7% | inhibition at 0.82 µM (HBV; Hepatitis B virus, read-out: HBsAg (% inhibition), 0.82 μM, EXP ID 11/1/2012): 14.8% | inhibition at 2.47 µM (HBV; Hepatitis B virus, read-out: HBsAg (% inhibition), 2.47 μM, EXP ID 10/15/2012 AL): -4.7% | inhibition at 2.47 µM (HBV; Hepatitis B virus, read-out: HBsAg (% inhibition), 2.47 μM, EXP ID 10/15/2012 VL): 11.8% | inhibition at 2.47 µM (HBV; Hepatitis B virus, read-out: HBsAg (% inhibition), 2.47 μM, EXP ID 11/1/2012): 14.7% | inhibition at 7.41 µM (HBV; Hepatitis B virus, read-out: HBsAg (% inhibition), 7.41 μM, EXP ID 10/15/2012 AL): -11.7% | inhibition at 7.41 µM (HBV; Hepatitis B virus, read-out: HBsAg (% inhibition), 7.41 μM, EXP ID 10/15/2012 VL): 3.92% | inhibition at 7.41 µM (HBV; Hepatitis B virus, read-out: HBsAg (% inhibition), 7.41 μM, EXP ID 11/1/2012): 1.81% | inhibition at 22.22 µM (HBV; Hepatitis B virus, read-out: HBsAg (% inhibition), 22.22 μM, EXP ID 10/15/2012 AL): 0.44% | inhibition at 22.22 µM (HBV; Hepatitis B virus, read-out: HBsAg (% inhibition), 22.22 μM, EXP ID 10/15/2012 VL): 3.98% | inhibition at 22.22 µM (HBV; Hepatitis B virus, read-out: HBsAg (% inhibition), 22.22 μM, EXP ID 11/1/2012): 0.66% | inhibition at 66.67 µM (HBV; Hepatitis B virus, read-out: HBsAg (% inhibition), 66.67 μM, EXP ID 10/15/2012 AL): -2.13% | inhibition at 66.67 µM (HBV; Hepatitis B virus, read-out: HBsAg (% inhibition), 66.67 μM, EXP ID 10/15/2012 VL): 14.5% | inhibition at 66.67 µM (HBV; Hepatitis B virus, read-out: HBsAg (% inhibition), 66.67 μM, EXP ID 11/1/2012): 5.02% | inhibition at 200 µM (HBV; Hepatitis B virus, read-out: HBsAg (% inhibition), 200 μM, EXP ID 10/15/2012 AL): 2.48% | inhibition at 200 µM (HBV; Hepatitis B virus, read-out: HBsAg (% inhibition), 200 μM, EXP ID 10/15/2012 VL): 4.25% | inhibition at 200 µM (HBV; Hepatitis B virus, read-out: HBsAg (% inhibition), 200 μM, EXP ID 11/1/2012): 16% | direct inhibition of HBV viral replication (HBV; cultured HepaRG cells): did not exert any direct anti-HBV effect | CC50 (HBV; read-out: EC/CC50 (μM), HBV DNA, EXP ID 11/1/2012): > 200 µM | CC50 (HBV; read-out: EC/CC50 (μM), HBsAg, EXP ID 10/15/2012 VL): > 200 µM | CC50 (HBV; read-out: EC/CC50 (μM), HBsAg, EXP ID 11/1/2012): > 200 µM
